Tests used:
[1] = target: Lysine-specific demethylase 5B (Homo sapiens, UniProt Q9UGL1); assay: Inhibition of KDM5B in human U2OS cells assessed as reduction in demethylation of H3K4me3 after 20 hrs by Hoechst 33342 staining based immunofluorescence assay; assay type: cell-based
[2] = target: T1, Lysine-specific demethylase 4C (Homo sapiens, UniProt Q9H3R0); assay: Inhibition of KDM4C (unknown origin) preincubated for 15 mins followed by histone substrate addition measured after 1 hr by alphascreen assay
T1 sequence (Q9H3R0 whole entry): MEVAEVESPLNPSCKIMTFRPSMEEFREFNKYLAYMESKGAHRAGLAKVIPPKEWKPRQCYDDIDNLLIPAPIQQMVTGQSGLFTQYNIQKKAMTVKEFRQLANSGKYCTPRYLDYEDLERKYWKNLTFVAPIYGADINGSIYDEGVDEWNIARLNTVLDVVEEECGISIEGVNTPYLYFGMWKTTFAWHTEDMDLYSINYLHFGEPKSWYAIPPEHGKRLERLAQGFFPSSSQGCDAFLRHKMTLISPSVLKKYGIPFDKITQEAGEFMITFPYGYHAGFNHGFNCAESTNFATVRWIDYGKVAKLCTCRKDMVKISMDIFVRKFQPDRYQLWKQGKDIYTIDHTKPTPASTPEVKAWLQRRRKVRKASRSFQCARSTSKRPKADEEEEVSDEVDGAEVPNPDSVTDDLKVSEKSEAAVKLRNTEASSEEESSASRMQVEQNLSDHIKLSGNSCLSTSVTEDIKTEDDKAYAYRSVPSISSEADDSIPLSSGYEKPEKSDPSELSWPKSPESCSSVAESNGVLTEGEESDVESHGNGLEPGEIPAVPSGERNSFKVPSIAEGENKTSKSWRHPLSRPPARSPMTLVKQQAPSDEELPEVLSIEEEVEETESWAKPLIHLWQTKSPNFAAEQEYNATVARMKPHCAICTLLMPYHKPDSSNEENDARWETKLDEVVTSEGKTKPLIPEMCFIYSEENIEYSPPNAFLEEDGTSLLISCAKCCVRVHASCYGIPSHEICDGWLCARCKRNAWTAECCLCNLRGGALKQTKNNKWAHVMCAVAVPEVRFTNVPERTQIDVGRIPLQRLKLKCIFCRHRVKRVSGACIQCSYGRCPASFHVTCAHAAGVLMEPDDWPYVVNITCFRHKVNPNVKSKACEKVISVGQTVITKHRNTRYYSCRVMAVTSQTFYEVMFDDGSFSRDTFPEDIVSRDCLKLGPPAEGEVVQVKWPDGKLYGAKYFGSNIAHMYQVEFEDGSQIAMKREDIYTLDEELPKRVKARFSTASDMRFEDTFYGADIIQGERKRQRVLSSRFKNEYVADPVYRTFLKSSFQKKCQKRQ

Lysine-specific demethylase 5B, sequence (Q9UGL1 whole entry): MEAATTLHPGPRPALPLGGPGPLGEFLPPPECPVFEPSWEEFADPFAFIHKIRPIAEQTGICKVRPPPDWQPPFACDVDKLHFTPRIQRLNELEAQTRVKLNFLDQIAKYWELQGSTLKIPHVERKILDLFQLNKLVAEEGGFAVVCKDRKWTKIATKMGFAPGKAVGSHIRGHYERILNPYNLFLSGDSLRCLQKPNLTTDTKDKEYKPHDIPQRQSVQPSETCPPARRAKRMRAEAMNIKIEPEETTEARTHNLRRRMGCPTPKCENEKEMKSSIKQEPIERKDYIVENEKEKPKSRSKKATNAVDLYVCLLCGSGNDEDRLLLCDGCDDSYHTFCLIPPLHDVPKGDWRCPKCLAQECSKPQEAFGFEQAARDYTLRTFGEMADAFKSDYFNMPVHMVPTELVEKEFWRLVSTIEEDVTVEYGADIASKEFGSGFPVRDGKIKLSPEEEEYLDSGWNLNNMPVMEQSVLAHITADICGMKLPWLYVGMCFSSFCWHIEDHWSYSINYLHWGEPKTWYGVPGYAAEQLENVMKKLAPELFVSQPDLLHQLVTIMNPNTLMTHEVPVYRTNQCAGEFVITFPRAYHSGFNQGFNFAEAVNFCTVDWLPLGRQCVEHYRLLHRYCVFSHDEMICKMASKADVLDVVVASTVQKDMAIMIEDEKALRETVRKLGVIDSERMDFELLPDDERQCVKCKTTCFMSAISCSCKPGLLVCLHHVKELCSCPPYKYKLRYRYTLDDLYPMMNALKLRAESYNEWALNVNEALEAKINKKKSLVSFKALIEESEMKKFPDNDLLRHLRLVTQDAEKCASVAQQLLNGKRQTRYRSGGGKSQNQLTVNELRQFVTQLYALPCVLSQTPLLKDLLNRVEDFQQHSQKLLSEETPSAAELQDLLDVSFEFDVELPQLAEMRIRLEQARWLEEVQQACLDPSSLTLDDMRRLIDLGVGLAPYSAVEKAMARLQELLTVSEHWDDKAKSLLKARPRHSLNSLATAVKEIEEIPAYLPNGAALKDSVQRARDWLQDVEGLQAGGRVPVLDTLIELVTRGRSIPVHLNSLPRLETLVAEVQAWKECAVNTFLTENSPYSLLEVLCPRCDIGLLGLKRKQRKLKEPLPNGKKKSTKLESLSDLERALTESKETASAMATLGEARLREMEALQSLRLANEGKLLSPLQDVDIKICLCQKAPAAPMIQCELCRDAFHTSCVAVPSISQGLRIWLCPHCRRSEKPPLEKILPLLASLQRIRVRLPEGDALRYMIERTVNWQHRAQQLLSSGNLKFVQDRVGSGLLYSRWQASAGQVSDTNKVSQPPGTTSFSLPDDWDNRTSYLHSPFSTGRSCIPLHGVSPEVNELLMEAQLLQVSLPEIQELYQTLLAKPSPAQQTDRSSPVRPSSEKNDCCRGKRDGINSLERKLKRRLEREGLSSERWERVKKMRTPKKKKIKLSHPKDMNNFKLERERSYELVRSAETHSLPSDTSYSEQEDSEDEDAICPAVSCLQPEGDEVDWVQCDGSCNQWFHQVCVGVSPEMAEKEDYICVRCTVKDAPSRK

Compound | IC50 [1] | IC50 [2]
CCN(CCN(C)C)C(=O)CNCc1cc(C(=O)O)ccn1 | 1 µM | 
Cc1ccsc1C(NC(=O)c1ccccc1)c1cc(Cl)c2cccnc2c1O (racemic) |  | 5 µM
